# Test results as given in PubChem BioAssay (NCI).
#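 All cell lines were grown in 96-well plates and treated with compound for 48 hours. Abbreviation: GI50, concentration required for 50% inhibition of growth. Definition used: TGI = concentration required for complete inhibition of growth.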
# Legend:
# Assay in all cases: NCI-60 cell line screen, 48 h
# 786-0 renal = tested on: 786-0 renal
# A498 renal = tested on: A498 renal
# ACHN renal = tested on: ACHN renal
# CAKI-1 renal = tested on: CAKI-1 renal
# CCRF-CEM leukemia = tested on: CCRF-CEM leukemia
# COLO 205 colon = tested on: COLO 205 colon
# DLD-1 colon = tested on: DLD-1 colon
# DMS 114 small cell lung = tested on: DMS 114 small cell lung
# DMS 273 small cell lung = tested on: DMS 273 small cell lung
# HCC-2998 colon = tested on: HCC-2998 colon
# HCT-116 colon = tested on: HCT-116 colon
# HL-60(TB) leukemia = tested on: HL-60(TB) leukemia
# HOP-62 NSCLC = tested on: HOP-62 NSCLC
# HOP-92 NSCLC = tested on: HOP-92 NSCLC
# IGROV1 ovarian = tested on: IGROV1 ovarian
# K-562 leukemia = tested on: K-562 leukemia
# LXFL 529 NSCLC = tested on: LXFL 529 NSCLC
# M14 melanoma = tested on: M14 melanoma
# M19-MEL melanoma = tested on: M19-MEL melanoma
# MALME-3M melanoma = tested on: MALME-3M melanoma
# MOLT-4 leukemia = tested on: MOLT-4 leukemia
# NCI-H226 lung = tested on: NCI-H226 lung
# NCI-H23 lung = tested on: NCI-H23 lung
# NCI-H522 lung = tested on: NCI-H522 lung
# OVCAR-4 ovarian = tested on: OVCAR-4 ovarian
# RPMI-8226 leukemia = tested on: RPMI-8226 leukemia
# RXF-631 renal = tested on: RXF-631 renal
# SF-268 CNS = tested on: SF-268 CNS
# SF-539 CNS = tested on: SF-539 CNS
# SK-MEL-2 melanoma = tested on: SK-MEL-2 melanoma
# SK-MEL-28 melanoma = tested on: SK-MEL-28 melanoma
# SK-OV-3 ovarian = tested on: SK-OV-3 ovarian
# SN12C renal = tested on: SN12C renal
# SNB-75 CNS = tested on: SNB-75 CNS
# SR leukemia = tested on: SR leukemia
# UACC-62 melanoma = tested on: UACC-62 melanoma
# UO-31 renal = tested on: UO-31 renal
# XF 498 CNS = tested on: XF 498 CNS
# A549 NSCLC = tested on: A549 NSCLC
# BT-549 breast = tested on: BT-549 breast
# DU-145 prostate = tested on: DU-145 prostate
# EKVX NSCLC = tested on: EKVX NSCLC
# HCT-15 colon = tested on: HCT-15 colon
# HOP-18 NSCLC = tested on: HOP-18 NSCLC
# HS 578T breast = tested on: HS 578T breast
# HT29 colon = tested on: HT29 colon
# KM12 colon = tested on: KM12 colon
# KM20L2 colon = tested on: KM20L2 colon
# LOX IMVI melanoma = tested on: LOX IMVI melanoma
# MCF7 breast = tested on: MCF7 breast
# MDA-MB-231 breast = tested on: MDA-MB-231 breast
# MDA-MB-435 = tested on: MDA-MB-435
# NCI-H460 lung = tested on: NCI-H460 lung
# NCI/ADR-RES ovarian = tested on: NCI/ADR-RES ovarian
# OVCAR-3 ovarian = tested on: OVCAR-3 ovarian
# OVCAR-5 ovarian = tested on: OVCAR-5 ovarian
# OVCAR-8 ovarian = tested on: OVCAR-8 ovarian
# PC-3 prostate = tested on: PC-3 prostate
# RXF 393 renal = tested on: RXF 393 renal
# SK-MEL-5 melanoma = tested on: SK-MEL-5 melanoma
# SNB-19 CNS = tested on: SNB-19 CNS
# SNB-78 CNS = tested on: SNB-78 CNS
# SW-620 colon = tested on: SW-620 colon
# T-47D breast = tested on: T-47D breast
# TK-10 renal = tested on: TK-10 renal
# U251 CNS = tested on: U251 CNS
# UACC-257 melanoma = tested on: UACC-257 melanoma
compound,measurement,setting,value
CNC1CC(n2cc(C)c(=O)[nH]c2=O)OC1CO (centres undefined),TGI,786-0 renal,> 100 µM
same,TGI,A498 renal,> 100 µM
same,TGI,ACHN renal,> 100 µM
same,TGI,CAKI-1 renal,> 100 µM
same,TGI,CCRF-CEM leukemia,> 100 µM
same,TGI,COLO 205 colon,> 100 µM
same,TGI,DLD-1 colon,> 100 µM
same,TGI,DMS 114 small cell lung,> 100 µM
same,TGI,DMS 273 small cell lung,> 100 µM
same,TGI,HCC-2998 colon,> 100 µM
same,TGI,HCT-116 colon,> 100 µM
same,TGI,HL-60(TB) leukemia,> 100 µM
same,TGI,HOP-62 NSCLC,> 100 µM
same,TGI,HOP-92 NSCLC,> 100 µM
same,TGI,IGROV1 ovarian,> 100 µM
same,TGI,K-562 leukemia,> 100 µM
same,TGI,LXFL 529 NSCLC,> 100 µM
same,TGI,M14 melanoma,> 100 µM
same,TGI,M19-MEL melanoma,> 100 µM
same,TGI,MALME-3M melanoma,> 100 µM
same,TGI,MOLT-4 leukemia,> 100 µM
same,TGI,NCI-H226 lung,> 100 µM
same,TGI,NCI-H23 lung,> 100 µM
same,TGI,NCI-H522 lung,> 100 µM
same,TGI,OVCAR-4 ovarian,> 100 µM
same,TGI,RPMI-8226 leukemia,> 100 µM
same,TGI,RXF-631 renal,> 100 µM
same,TGI,SF-268 CNS,> 100 µM
same,TGI,SF-539 CNS,> 100 µM
same,TGI,SK-MEL-2 melanoma,> 100 µM
same,TGI,SK-MEL-28 melanoma,> 100 µM
same,TGI,SK-OV-3 ovarian,> 100 µM
same,TGI,SN12C renal,> 100 µM
same,TGI,SNB-75 CNS,> 100 µM
same,TGI,SR leukemia,> 100 µM
same,TGI,UACC-62 melanoma,> 100 µM
same,TGI,UO-31 renal,> 100 µM
same,TGI,XF 498 CNS,> 100 µM
CN(C)CC(=O)N1CCc2c([nH]c3ccccc23)C1c1cccnc1 (centres undefined),TGI,786-0 renal,> 100 µM
same,TGI,A498 renal,> 100 µM
same,TGI,A549 NSCLC,> 100 µM
same,TGI,ACHN renal,> 100 µM
same,GI50,BT-549 breast,12.9 µM
same,TGI,BT-549 breast,77.4 µM
same,TGI,CAKI-1 renal,> 100 µM
same,TGI,CCRF-CEM leukemia,> 100 µM
same,GI50,COLO 205 colon,99.7 µM
same,TGI,COLO 205 colon,> 100 µM
same,TGI,DLD-1 colon,> 100 µM
same,TGI,DMS 114 small cell lung,> 100 µM
same,TGI,DMS 273 small cell lung,1.37 µM
same,GI50,DU-145 prostate,> 100 µM
same,TGI,DU-145 prostate,> 100 µM
same,TGI,EKVX NSCLC,> 100 µM
same,TGI,HCC-2998 colon,> 100 µM
same,TGI,HCT-116 colon,> 100 µM
same,TGI,HCT-15 colon,> 100 µM
same,TGI,HL-60(TB) leukemia,> 100 µM
same,TGI,HOP-18 NSCLC,> 100 µM
same,TGI,HOP-62 NSCLC,> 100 µM
same,TGI,HOP-92 NSCLC,> 100 µM
same,GI50,HS 578T breast,94.1 µM
same,TGI,HS 578T breast,> 100 µM
same,TGI,HT29 colon,> 100 µM
same,TGI,IGROV1 ovarian,> 100 µM
same,TGI,K-562 leukemia,> 100 µM
same,TGI,KM12 colon,> 100 µM
same,TGI,KM20L2 colon,> 100 µM
same,TGI,LOX IMVI melanoma,> 100 µM
same,TGI,LXFL 529 NSCLC,> 100 µM
same,TGI,M14 melanoma,> 100 µM
same,TGI,M19-MEL melanoma,> 100 µM
same,GI50,MALME-3M melanoma,> 100 µM
same,TGI,MALME-3M melanoma,> 100 µM
same,GI50,MCF7 breast,70.2 µM
same,TGI,MCF7 breast,> 100 µM
same,GI50,MDA-MB-231 breast,21.5 µM
same,TGI,MDA-MB-231 breast,83.5 µM
same,GI50,MDA-MB-435,> 100 µM
same,TGI,MDA-MB-435,> 100 µM
same,TGI,MOLT-4 leukemia,> 100 µM
same,GI50,NCI-H226 lung,> 100 µM
same,TGI,NCI-H226 lung,> 100 µM
same,TGI,NCI-H23 lung,> 100 µM
same,TGI,NCI-H460 lung,> 100 µM
same,TGI,NCI-H522 lung,> 100 µM
same,GI50,NCI/ADR-RES ovarian,> 100 µM
same,TGI,NCI/ADR-RES ovarian,> 100 µM
same,TGI,OVCAR-3 ovarian,> 100 µM
same,TGI,OVCAR-4 ovarian,> 100 µM
same,TGI,OVCAR-5 ovarian,> 100 µM
same,TGI,OVCAR-8 ovarian,> 100 µM
same,GI50,PC-3 prostate,93 µM
same,TGI,PC-3 prostate,> 100 µM
same,TGI,RPMI-8226 leukemia,> 100 µM
same,GI50,RXF 393 renal,> 100 µM
same,TGI,RXF 393 renal,> 100 µM
same,TGI,RXF-631 renal,> 100 µM
same,TGI,SF-268 CNS,> 100 µM
same,TGI,SF-539 CNS,> 100 µM
same,GI50,SK-MEL-2 melanoma,> 100 µM
same,TGI,SK-MEL-2 melanoma,> 100 µM
same,TGI,SK-MEL-28 melanoma,> 100 µM
same,TGI,SK-MEL-5 melanoma,> 100 µM
same,TGI,SK-OV-3 ovarian,> 100 µM
same,TGI,SN12C renal,> 100 µM
same,TGI,SNB-19 CNS,> 100 µM
same,TGI,SNB-75 CNS,> 100 µM
same,TGI,SNB-78 CNS,> 100 µM
same,TGI,SR leukemia,> 100 µM
same,TGI,SW-620 colon,> 100 µM
same,GI50,T-47D breast,> 100 µM
same,TGI,T-47D breast,> 100 µM
same,TGI,TK-10 renal,> 100 µM
same,TGI,U251 CNS,> 100 µM
same,TGI,UACC-257 melanoma,> 100 µM
same,TGI,UACC-62 melanoma,> 100 µM
same,TGI,UO-31 renal,> 100 µM
same,TGI,XF 498 CNS,> 100 µM
